Laboratory results: patent US20240122930A1, “INTEGRIN INHIBITORS AND USES THEREOF IN COMBINATION WITH OTHER AGENTS” (Pliant Therapeutics, Inc., priority 2022, published 2024)
pEC50: −log10 of the molar value. Values joined by “and” are separate entries in the source; they are usually repeats but may differ in a detail not shown here. Equal entries are not always repeated. “Also recorded” adds a separate entry of the source.

How the values were obtained:
lung Col1a1 expression = assay: Precision cut lung slices, chronic bleomycin exposure, versus and with nintedanib and pirfenidone; type: cell-based, mice (C57BL/6); conditions: chronic bleomycin PCLS; for lung slice Col1a1 expression vs DMSO vehicle control slices: 7 days
Procedure: Mice (C57BL/6) were administered 3 U/kg of bleomycin (Teva Pharmaceuticals; North Wales, PA) on Day 0 and 1 U/kg of bleomycin on days 14, 28, 42 and 56 via oropharyngeal aspiration while under anesthesia. At day 70, 14 days following the final bleomycin insult, precision cut lung slices were obtained. […] The lobes were then subjected to precision slicing to obtain samples for culture using a microtome (Compresstome VF-300-OZ, Precisionary; Greenville, NC). Individual slices were distributed in a multiwell culture plate and cultured for 7 days under control (DMSO) and test compound conditions. The viability of the slices over the course of culturing was confirmed by WST-1 assay of mitochondrial activity. During the culture period, slices in the control group were treated with DMSO and slices in the test group were treated with a DMSO solution of one of: […]

[1] = test system: pSMAD2:SMAD2 ratio in BAL; assay: pSMAD2:SMAD2 ratio in BAL and plasma Cmax in healthy subjects; type: in vivo, human
Procedure: (§1) In order to evaluate the change of pSMAD2 as a biomarker of TGF-β activity following administration of an integrin inhibitor, and to determine a therapeutically effective dosage and an effective blood plasma Cmax of the integrin inhibitor, healthy subjects were administered Compound 5, a dual selective αVβ6/αVβ1-integrin inhibitor, and the corresponding Cmax levels and decrease in phosphorylation levels and were determined.
(§2) Healthy non-smoking adult males without history of lung disease were selected as subjects and were randomized into 4 cohorts. Broncoalevaolar lavage samples were obtained from all subjects 1 day prior to start of treatment. Cohorts 1 and 2 were administered 20 mg of a compound daily, wherein 3 subjects were administered the dual selective αVβ6/αVβ1-integrin inhibitor (Compound 5) per every 1 subject receiving a placebo compound. Cohorts 3 and 4 were administered 40 mg of a compound daily, wherein 3 subjects were administered the dual selective αVβ6/αVβ1-integrin inhibitor (Compound 5) per every 1 subject receiving a placebo compound. BAL samples and blood samples were taken from all subjects on Day −1 (baseline) and on Day 7 (end of treatment).

[2] = as above; type: in vivo, human; conditions: male, human, plasma, 40 mg/day, after the dose on Day 7, subjects of FIG. 8A-8F; read-out: Cmax (peak of the blood plasma concentration)
Procedure: as §1, §2

[3] = test system: normal human bronchial epithelial cells; assay: LAP adhesion assay, normal human bronchial epithelial cells (xCELLigence); type: cell-based; conditions: FIG. 3A
Procedure: Two latency associated peptide (LAP) adhesion binding assays were devised using primary human lung cells, including normal (healthy) human bronchial epithelial cells and human lung fibroblasts (healthy and IPF).
Human bronchial epithelial cells are known to express αVβ6 integrin in culture. Human bronchial epithelial cells were prepared for the assay by dissociation with trypsin/EDTA and were then seeded at 20,000 cells per well on 96 well plates (ACEA Bioscience E-plate View, Acea Biosciences; San Diego, CA) previously coated with 5 μg/ml of recombinant human LAP (R&D Systems; Minneapolis, MN) and blocked with 4% bovine serum albumin.

[4] = test system: participants with idiopathic pulmonary fibrosis (IPF); assay: Phase 2a clinical trial: High Resolution CT-based Quantitative Lung Fibrosis (QLF) imaging; type: in vivo, human; conditions: for Mean Percent Change in QLF Extent From Baseline to Week 12 (Mean Difference) / Median change in QLF Extent From Baseline to Week 12 / QLF extent change Baseline to Week 12: Improvers < −2%, % / QLF extent change Baseline to Week 12: Stable [−2, 2%), % / QLF extent change Baseline to Week 12: Worse > 2%, %: CT Protocol Population
Procedure: Study Design and Objectives. […] At Day 1, baseline values were collected.
[…]-IPF study design and objectives.
QLF was measured by computed tomography. […] QLF refers to quantitative lung fibrosis. […] Per CT protocol population: Participants with both baseline and post baseline high resolution computed tomography (HRCT) scans meet evaluability criteria per Imaging Charter.

αVβ6 = biological target: T1, αVβ6 (Homo sapiens, UniProt P06756+P18564); assay: αVβ6 target engagement by [18F]FP-R01-MG-F2 PET/CT in participants with IPF; type: in vivo; set-up: Vt / Vs (Vt − VND): unit not given here; conditions: for Vs (Vt − VND): VND = 0.66
T1 construct: clinical trial evaluating αVβ6 receptor occupancy in the lungs; from tissue; host or cells: lungs of human participants with IPF (in vivo PET/CT)
T1 sequence (P06756 31-1048): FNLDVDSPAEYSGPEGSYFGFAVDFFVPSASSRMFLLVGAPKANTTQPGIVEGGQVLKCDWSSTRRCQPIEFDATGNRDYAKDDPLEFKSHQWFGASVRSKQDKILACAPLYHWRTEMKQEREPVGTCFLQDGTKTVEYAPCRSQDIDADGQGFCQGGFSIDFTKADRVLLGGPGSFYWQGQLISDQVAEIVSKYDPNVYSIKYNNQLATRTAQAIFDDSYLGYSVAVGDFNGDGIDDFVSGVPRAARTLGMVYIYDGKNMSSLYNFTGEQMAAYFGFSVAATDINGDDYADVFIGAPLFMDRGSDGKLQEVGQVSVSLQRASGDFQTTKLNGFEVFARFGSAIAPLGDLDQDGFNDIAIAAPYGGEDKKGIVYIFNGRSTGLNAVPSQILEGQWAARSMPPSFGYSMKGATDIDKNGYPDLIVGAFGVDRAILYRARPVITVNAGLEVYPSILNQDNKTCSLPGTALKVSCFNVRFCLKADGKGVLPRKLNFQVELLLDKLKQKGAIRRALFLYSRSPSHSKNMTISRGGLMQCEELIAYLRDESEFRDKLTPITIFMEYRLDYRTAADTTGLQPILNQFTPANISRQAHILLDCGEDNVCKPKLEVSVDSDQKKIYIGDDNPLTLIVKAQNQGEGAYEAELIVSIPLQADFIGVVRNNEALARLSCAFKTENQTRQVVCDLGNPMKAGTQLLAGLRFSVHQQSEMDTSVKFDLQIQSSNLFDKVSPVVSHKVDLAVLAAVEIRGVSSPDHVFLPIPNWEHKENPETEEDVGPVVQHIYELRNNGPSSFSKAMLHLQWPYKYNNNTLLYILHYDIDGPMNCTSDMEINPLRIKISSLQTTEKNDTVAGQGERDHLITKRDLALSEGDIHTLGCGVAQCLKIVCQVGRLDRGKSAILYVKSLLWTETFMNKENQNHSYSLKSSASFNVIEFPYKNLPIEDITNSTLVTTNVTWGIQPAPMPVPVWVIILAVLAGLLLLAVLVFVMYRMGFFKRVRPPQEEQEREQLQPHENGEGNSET
T1 sequence (P18564 22-788): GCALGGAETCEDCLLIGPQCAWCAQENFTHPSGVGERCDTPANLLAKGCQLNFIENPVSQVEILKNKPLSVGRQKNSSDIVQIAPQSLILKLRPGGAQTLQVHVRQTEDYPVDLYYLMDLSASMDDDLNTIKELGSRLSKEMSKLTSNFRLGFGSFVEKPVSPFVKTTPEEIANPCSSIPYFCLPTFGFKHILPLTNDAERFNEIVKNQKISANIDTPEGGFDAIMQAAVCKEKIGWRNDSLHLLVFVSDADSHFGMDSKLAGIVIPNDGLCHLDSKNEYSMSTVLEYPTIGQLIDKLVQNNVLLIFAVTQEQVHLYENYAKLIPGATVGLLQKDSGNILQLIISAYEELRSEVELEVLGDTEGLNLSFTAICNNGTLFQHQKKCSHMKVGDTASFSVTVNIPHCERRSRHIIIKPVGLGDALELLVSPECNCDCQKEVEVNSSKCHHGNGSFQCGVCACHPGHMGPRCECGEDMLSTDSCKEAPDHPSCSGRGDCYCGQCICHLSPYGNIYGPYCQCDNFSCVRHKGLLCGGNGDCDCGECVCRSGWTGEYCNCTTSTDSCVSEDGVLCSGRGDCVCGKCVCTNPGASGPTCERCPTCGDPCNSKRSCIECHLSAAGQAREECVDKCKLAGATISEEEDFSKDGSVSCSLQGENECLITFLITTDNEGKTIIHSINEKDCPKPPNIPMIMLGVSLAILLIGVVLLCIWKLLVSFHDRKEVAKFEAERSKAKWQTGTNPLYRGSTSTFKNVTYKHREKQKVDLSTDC
Procedure: (§3) The aim of this Example is to assess target engagement of the disclosed compounds to αVβ6 in human participants with IPF using [^18F]FP-R01-MG-F2 PET/computerized tomography (CT) imaging.
(§4) This Example was conducted as an open-label, single-dose (60 mg, 120 mg, 240 mg or 320 mg) clinical trial evaluating αVβ6 receptor occupancy in the lungs, safety, and pharmacokinetics of Compound #5 in subjects with IPF. To date, 4 participants have completed the study. Each of these 4 participants was undergoing a pre-existing course of therapy using one of the SoC (Standard of Care) compounds, nintedanib. These participants continued their pre-existing nintedanib therapy throughout this study. Knottin tracer uptake kinetics were compared pre- and post-dose of the disclosed compound, as measured by standardized uptake values (SUVs) and parameters estimated from kinetic modeling in regions-of-interest on dynamic [^18F]FP-R01-MG-F2 PET/CT scans. […] Receptor occupancy was estimated from the output of the two-compartment model (VT, the […]) using standard equations and fitting algorithms, and corrections for VND (non-displaceable tracer binding). For example, in FIG. 10, the data points, shown as circles, are modeled by the following formula: […]
(§5) Five subjects with IPF were enrolled: Subject A received a single dose of 60 mg of the disclosed compound followed by a post-dose scan. Subject B received two doses of the disclosed compound separated by two weeks, 120 mg and 240 mg, each followed by a post-dose scan. Subject C received two doses of the disclosed compound separated by two weeks, 240 mg and 320 mg, each followed by a post-dose scan. Subject D received a single dose of 320 mg of the disclosed compound followed by a post-dose scan.

[5] = as above; type: in vivo, human; set-up: Vt / Vs (Vt − VND): unit not given here; conditions: human, plasma; Subject C, 320 mg; read-out: Conc (Unbound Plasma Concentration)
Procedure: as §3, §4, §5

[6] = 40 mg/day, after the dose on Day 7, subjects of FIG. 8A-8F
[7] = % target engagement fit of FIG. 10

## COCCN(CCCCc1ccc2c(n1)NCCC2)CC[C@H](Nc1ncnc2ccccc12)C(=O)O [Compound 5, (S)-4-((2-methoxyethyl) (4-(5,6,7,8-tetrahydro-1,8-naphthyridin-2-yl)butyl)amino)-2-(quinazolin-4-ylamino) butanoic acid]
Lung Col1a1 expression; 7 days culture, single agents
  lung Col1a1 expression vs DMSO vehicle control slices: substantial, statistically significant (p<0.01 vs vehicle) decrease
Lung Col1a1 expression; in combination with nintedanib
  lung slice Col1a1 expression vs DMSO vehicle control slices: substantial, statistically significant (p<0.01 vs vehicle) decrease
Lung Col1a1 expression; in combination with pirfenidone
  lung slice Col1a1 expression vs DMSO vehicle control slices: substantial, statistically significant (p<0.01 vs vehicle) decrease
[1]; [6]
  Cmax (peak of the blood plasma concentration): 700 to 900 ng/mL and < 700 ng/mL
  PD effect (relative change in pSMAD2:SMAD2 ratio from baseline in BAL): sustained PD effect; also recorded: transitory PD effect; also recorded: no PD effect
[1]; 12 h and 24 h post-administration on Day 7
  correlation of plasma Cmax with reduction of pSMAD2:SMAD2 ratio relative to baseline: strongly correlated
[2]
  Cmax: > 900 ng/mL
[3]
  normal bronchial epithelial cell adhesion to LAP: substantially inhibited
[4]; 40 mg (N = 15)
  Mean Percent Change in QLF Extent From Baseline to Week 12 (Mean Difference): 3.15%
  Median change in QLF Extent From Baseline to Week 12: 1.50%
  QLF extent change Baseline to Week 12: Improvers < −2%, %: (6.6%)
  QLF extent change Baseline to Week 12: Stable [−2, 2%), %: (46.7%)
  QLF extent change Baseline to Week 12: Worse > 2%, %: (46.7%)
[4]; 80 mg (N = 18)
  Mean Percent Change in QLF Extent From Baseline to Week 12 (Mean Difference): 0.7%
  Median change in QLF Extent From Baseline to Week 12: −0.45%
  QLF extent change Baseline to Week 12: Improvers < −2%, %: (11.1%)
  QLF extent change Baseline to Week 12: Stable [−2, 2%), %: (72.2%)
  QLF extent change Baseline to Week 12: Worse > 2%, %: (16.7%)
[4]; 160 mg (N = 14)
  Mean Percent Change in QLF Extent From Baseline to Week 12 (Mean Difference): 0%
  Median change in QLF Extent From Baseline to Week 12: −0.10%
  QLF extent change Baseline to Week 12: Improvers < −2%, %: (28.6%)
  QLF extent change Baseline to Week 12: Stable [−2, 2%), %: (50.0%)
  QLF extent change Baseline to Week 12: Worse > 2%, %: (21.4%)
[4]; 160 mg and 320 mg groups, Week 12
  Progression based on mean change from baseline in QLF: No or limited progression
[4]; 320 mg
  Likelihood of stabilization or improvement of fibrosis (QLF) relative to placebo at Week 24: twice as likely
[4]; 320 mg (n=16), Per CT protocol population, placebo (n=25) 1.46%
  Mean (SD) Change in QLF Extent from Baseline at Week 12: 0.2%
[4]; 320 mg, per CT protocol population, stable −2% to 2%, improved <−2%, placebo 33%
  Patients with stable or improved QLF from baseline at week 24: 71%
[4]; 320 mg, per CT protocol population, worsened >2%, placebo 67%
  Patients with worsened QLF from baseline at week 24: 29%
[4]; 40 to 320 mg, Week 12
  Antifibrotic effect on QLF imaging: Dose-dependent antifibrotic effect
αVβ6; 60 mg dose
  decrease of the volume of distribution of the knottin radiotracer in the lungs: approximately 50%
αVβ6; 240 and 320 mg doses
  decrease of the volume of distribution of the knottin radiotracer in the lungs: greater than 95%
αVβ6; [7]
  best-fit bottom value: 0
  best-fit hillslope value: 1.11
  best-fit top value: 87.4
αVβ6; Subject A, 60 mg
  Conc (Unbound Plasma Concentration): 3.66 nM
αVβ6; Subject A, post-dose 60 mg
  Vt: 1.84
  Vs (Vt − VND): 1.18
αVβ6; Subject B, 120 mg
  Conc (Unbound Plasma Concentration): 10 nM
αVβ6; Subject B, 120 mg, corrected for non-displaceable binding
  %DeltaVt: 59.76%
αVβ6; Subject B, 240 mg
  Conc (Unbound Plasma Concentration): 58.3 nM
αVβ6; Subject B, post-dose 120 mg
  Vt: 1.65
  Vs (Vt − VND): 0.99
αVβ6; Subject B, post-dose 240 mg
  Vt: 0.72
  Vs (Vt − VND): 0.06
αVβ6; Subject C, 240 mg
  Conc (Unbound Plasma Concentration): 103 nM
αVβ6; Subject C, post-dose 240 mg
  Vt: 0.98
  Vs (Vt − VND): 0.32
αVβ6; Subject C, post-dose 320 mg
  Vt: 0.85
  Vs (Vt − VND): 0.19
αVβ6; Subject D, 320 mg
  Conc (Unbound Plasma Concentration): 33.6 nM
αVβ6; Subject D, post-dose 320 mg
  Vt: 0.75
  Vs (Vt − VND): 0.09
αVβ6; at pharmacologically relevant plasma concentrations
  Receptor occupancy: > 95%
αVβ6; drug exposure at 4 hours, approaching 100% receptor occupancy
  concentration at which the exposure response saturates: about 100 nM
αVβ6; unbound plasma concentration vs % target engagement, 4-parameter non-linear regression (FIG. 10), read-out: best-fit EC50
  pEC50: 8.53
[5]
  concentration at 4 h: 98.5 nM
